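Dose response: 5 concentrations. Exposure: 48 h. Format: 96-well plates. Endpoint: linear interpolation; highest concentration if not reached. GI50 marks 50% less growth.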 The source made the active and inactive calls. Cut-off read from the data, not from the text of the source: active = GI50 up to about 1.1 µM and inactive = higher.
What was measured:
Test in all cases: growth of human tumour cells (NCI), 48 h
A549 = system: A549
ACHN = system: ACHN
EKVX = system: EKVX
HCT-116 = system: HCT-116
HL-60 = system: HL-60
K562 = system: K562
KM12 = system: KM12
LOX IMVI = system: LOX IMVI
M14 = system: M14
MOLT-4 = system: MOLT-4
NCI-H226 = system: NCI-H226
SN12C = system: SN12C
SR = system: SR
UACC-257 = system: UACC-257
UACC-62 = system: UACC-62
UO-31 = system: UO-31
MCF7 = system: MCF7
MDA-MB-231 = system: MDA-MB-231
NCI/ADR-RES = system: NCI/ADR-RES

Row | Compound | GI50 (A549) | GI50 (ACHN) | GI50 (EKVX) | GI50 (HCT-116) | GI50 (HL-60) | GI50 (K562) | GI50 (KM12) | GI50 (LOX IMVI) | GI50 (M14) | GI50 (MOLT-4) | GI50 (NCI-H226) | GI50 (SN12C) | GI50 (SR) | GI50 (UACC-257) | GI50 (UACC-62) | GI50 (UO-31) | GI50 (MCF7) | GI50 (MDA-MB-231) | GI50 (NCI/ADR-RES)
1 | COC1=CC(=O)NCCN1 | > 100 µM (inactive) | > 100 µM (inactive) | > 100 µM (inactive) | 74.3 µM (inactive) | 21 µM (inactive) | > 100 µM (inactive) | > 100 µM (inactive) | 23.5 µM (inactive) | > 100 µM (inactive) | > 100 µM (inactive) | > 100 µM (inactive) | > 100 µM (inactive) | > 100 µM (inactive) | > 100 µM (inactive) | > 100 µM (inactive) | > 100 µM (inactive) |  |  | 
2 | COc1ccc2nc3cccc(C(=O)NCCN(C)C)c3nc2c1 | 1.8 µM (inactive) | 0.689 µM (active) | 3.06 µM (inactive) | 0.512 µM (active) | 1.08 µM (active) | 0.794 µM (active) | 1.3 µM (inactive) | 0.64 µM (active) | 2.28 µM (inactive) | 0.187 µM (active) | 1.32 µM (inactive) | 1.39 µM (inactive) | 0.264 µM (active) | 2.64 µM (inactive) | 2.24 µM (inactive) | 2.45 µM (inactive) |  |  | 
3 | CSC1NC(c2ccc(Cl)cc2)=C(C#N)C(=O)N1C1OCC(OC(C)=O)C(OC(C)=O)C1OC(C)=O (stereo not drawn) |  | > 100 µM (inactive) | > 100 µM (inactive) |  |  | > 100 µM (inactive) | > 100 µM (inactive) | > 100 µM (inactive) | > 100 µM (inactive) | 8.24 µM (inactive) | > 100 µM (inactive) | 45.1 µM (inactive) | 24.5 µM (inactive) | > 100 µM (inactive) | > 100 µM (inactive) | 53.3 µM (inactive) | > 100 µM (inactive) | > 100 µM (inactive) | > 100 µM (inactive)
4 | O=C1C(=O)N(c2ccc(Cl)cc2Cl)C(=O)C(=O)C1c1nc2ccccc2s1 | > 100 µM (inactive) | > 100 µM (inactive) | > 79.8 µM (inactive) | > 71.6 µM (inactive) | 23.7 µM (inactive) | 31 µM (inactive) | > 100 µM (inactive) | > 100 µM (inactive) | > 100 µM (inactive) | 23.3 µM (inactive) | > 74.8 µM (inactive) | > 100 µM (inactive) | 28.2 µM (inactive) | > 100 µM (inactive) | 78.3 µM (inactive) | > 77.4 µM (inactive) |  |  | 
5 | CN(C)C(=O)/N=c1\ss/c(=N\C(=S)N(C)C)n1-c1ccccc1 | 35.5 µM (inactive) | 23 µM (inactive) | > 63.5 µM (inactive) | 13.5 µM (inactive) | 8.34 µM (inactive) | 0.294 µM (active) | 57.5 µM (inactive) | 3.53 µM (inactive) | 20 µM (inactive) | 7.78 µM (inactive) | 27.2 µM (inactive) | 45.8 µM (inactive) | 10 µM (inactive) | 15.5 µM (inactive) | 14.4 µM (inactive) | 33 µM (inactive) |  |  | 
6 | COc1cc(/C=C2/C(=O)N(C(=O)OC(C)C)C(Cc3cc(OC)c(OC)c(C)c3OC)C(=O)N2Cc2ccccc2)c(OC)c(C)c1OC (stereo not drawn) | 56.9 µM (inactive) | > 100 µM (inactive) | > 100 µM (inactive) | 27.5 µM (inactive) | 3.52 µM (inactive) | 6.79 µM (inactive) | 54.2 µM (inactive) | > 100 µM (inactive) | 50.9 µM (inactive) | 3.33 µM (inactive) | 3.35 µM (inactive) | 54.8 µM (inactive) | 7.24 µM (inactive) | 7.94 µM (inactive) | > 100 µM (inactive) | 9.06 µM (inactive) |  |  | 
7 | Cc1c(C)c2ccc3oc4ccccc4c3c2oc1=O | > 100 µM (inactive) | > 100 µM (inactive) | > 100 µM (inactive) | 96.4 µM (inactive) | > 100 µM (inactive) | > 100 µM (inactive) | > 100 µM (inactive) | > 100 µM (inactive) | > 100 µM (inactive) | > 100 µM (inactive) | > 100 µM (inactive) | > 100 µM (inactive) | > 100 µM (inactive) | > 100 µM (inactive) | > 100 µM (inactive) | > 100 µM (inactive) |  |  | 
8 | COC(=O)c1ncc2c(=O)[nH]c3ccccc3c2c1C(=O)OC | > 100 µM (inactive) | > 100 µM (inactive) | > 100 µM (inactive) | > 100 µM (inactive) | > 100 µM (inactive) | > 100 µM (inactive) | > 100 µM (inactive) | > 100 µM (inactive) | > 100 µM (inactive) | > 100 µM (inactive) | > 100 µM (inactive) | > 100 µM (inactive) | > 100 µM (inactive) | > 100 µM (inactive) | > 100 µM (inactive) | > 100 µM (inactive) |  |  | 
9 | Cn1c(S)nc2c(Cl)cc(Cl)cc2c1=O | > 100 µM (inactive) | > 100 µM (inactive) | > 100 µM (inactive) | > 100 µM (inactive) | 18.2 µM (inactive) |  | > 100 µM (inactive) | > 100 µM (inactive) | > 100 µM (inactive) | 18.7 µM (inactive) |  | > 100 µM (inactive) |  | > 100 µM (inactive) | > 100 µM (inactive) | 64 µM (inactive) | 71.4 µM (inactive) | > 100 µM (inactive) | > 100 µM (inactive)
10 | CCN(CC)CCO/N=C1\CC[C@H]2[C@@H]3CC=C4C[C@@H](O)CC[C@]4(C)[C@H]3CC[C@]12C |  | 35.8 µM (inactive) | 35 µM (inactive) | 15.6 µM (inactive) | 9.77 µM (inactive) | 7.98 µM (inactive) | 17.8 µM (inactive) | 16.5 µM (inactive) |  | 15.7 µM (inactive) | 15 µM (inactive) | 45.6 µM (inactive) | 5.31 µM (inactive) | 16.7 µM (inactive) | 16.9 µM (inactive) | 15.8 µM (inactive) | 16.6 µM (inactive) | 19.7 µM (inactive) | 26.1 µM (inactive)
11 | CN(C)CC(/C(Cc1ccccc1)=N\NC(=O)C[n+]1ccccc1)c1ccccc1 (stereo not drawn) | > 100 µM (inactive) | > 100 µM (inactive) | > 100 µM (inactive) | > 100 µM (inactive) | > 100 µM (inactive) | > 100 µM (inactive) | > 100 µM (inactive) | > 10 µM (inactive) | > 100 µM (inactive) | > 100 µM (inactive) | > 100 µM (inactive) | > 100 µM (inactive) | > 100 µM (inactive) | > 100 µM (inactive) | > 100 µM (inactive) | > 100 µM (inactive) |  |  | 
12 | O=C1/C(=C/c2ccco2)NC(=S)N1CN1CCOCC1 | > 100 µM (inactive) | > 100 µM (inactive) | > 100 µM (inactive) | > 100 µM (inactive) |  | > 100 µM (inactive) | > 100 µM (inactive) | > 100 µM (inactive) | > 100 µM (inactive) | > 100 µM (inactive) | > 100 µM (inactive) | > 100 µM (inactive) | > 100 µM (inactive) | > 100 µM (inactive) | > 100 µM (inactive) | > 100 µM (inactive) | > 100 µM (inactive) | > 100 µM (inactive) | > 100 µM (inactive)
13 | [N-]=[N+]=CC(=O)OCCCCl |  | > 100 µM (inactive) | > 100 µM (inactive) | > 100 µM (inactive) | > 100 µM (inactive) |  | > 100 µM (inactive) | > 100 µM (inactive) |  | > 100 µM (inactive) | > 100 µM (inactive) | > 100 µM (inactive) | 4.25 µM (inactive) | > 100 µM (inactive) | > 100 µM (inactive) | > 100 µM (inactive) | > 100 µM (inactive) | > 100 µM (inactive) | 
14 | CCn1c(-c2ccc(C)cc2)cs/c1=N\C(P(=O)(O)O)P(=O)(O)O | > 100 µM (inactive) | > 100 µM (inactive) | > 100 µM (inactive) | > 100 µM (inactive) | 0.337 µM (active) | > 100 µM (inactive) | > 100 µM (inactive) | > 100 µM (inactive) | > 100 µM (inactive) | > 100 µM (inactive) | > 100 µM (inactive) |  | > 100 µM (inactive) | > 100 µM (inactive) | > 100 µM (inactive) | > 100 µM (inactive) | > 100 µM (inactive) | > 100 µM (inactive) | > 100 µM (inactive)
15 | CCC(=O)OC1CCn2c1nc1c2C(=O)C(C)=C(NC(C)=O)C1=O (stereo not drawn) | 2.05 µM (inactive) | 3.59 µM (inactive) | 2.03 µM (inactive) | 1.67 µM (inactive) | 0.796 µM (active) | 1.87 µM (inactive) | 1.92 µM (inactive) | 1.37 µM (inactive) | 1.89 µM (inactive) | 1.41 µM (inactive) | 1.69 µM (inactive) | 1.79 µM (inactive) | 1.91 µM (inactive) | 1.69 µM (inactive) | 1.93 µM (inactive) | 2.22 µM (inactive) |  |  | 
16 | COc1c2nc(CCl)n(C)c(=O)c2c(OC)c2c(=O)n(C)c(CCl)nc12 | 3.08 µM (inactive) | 1.19 µM (inactive) | 3.31 µM (inactive) | 1.11 µM (active) | 0.653 µM (active) | 0.689 µM (active) | 1.22 µM (inactive) | 0.446 µM (active) |  | 0.294 µM (active) | 3.06 µM (inactive) | 1.69 µM (inactive) |  | 1.81 µM (inactive) |  | 1.24 µM (inactive) | 0.48 µM (active) | 1.55 µM (inactive) | 2.49 µM (inactive)
17 | O=S(=O)(F)Cc1ccccc1 [PHENYLMETHYLSULFONYLFLUORIDE] | > 100 µM (inactive) | > 100 µM (inactive) | > 100 µM (inactive) | > 100 µM (inactive) |  | > 100 µM (inactive) | > 100 µM (inactive) | > 100 µM (inactive) | > 100 µM (inactive) | > 100 µM (inactive) | > 100 µM (inactive) | > 100 µM (inactive) | > 100 µM (inactive) | > 100 µM (inactive) | > 100 µM (inactive) | > 100 µM (inactive) | > 100 µM (inactive) | > 100 µM (inactive) | > 100 µM (inactive)
